# Read-outs that look alike come from different tables or passages of the source.
# Biological target: T1, Androgen Receptor (Homo sapiens, UniProt P10275)
# T1 construct: endogenous in cells; host or cells: VCaP cells
# T1 sequence (P10275 1-920): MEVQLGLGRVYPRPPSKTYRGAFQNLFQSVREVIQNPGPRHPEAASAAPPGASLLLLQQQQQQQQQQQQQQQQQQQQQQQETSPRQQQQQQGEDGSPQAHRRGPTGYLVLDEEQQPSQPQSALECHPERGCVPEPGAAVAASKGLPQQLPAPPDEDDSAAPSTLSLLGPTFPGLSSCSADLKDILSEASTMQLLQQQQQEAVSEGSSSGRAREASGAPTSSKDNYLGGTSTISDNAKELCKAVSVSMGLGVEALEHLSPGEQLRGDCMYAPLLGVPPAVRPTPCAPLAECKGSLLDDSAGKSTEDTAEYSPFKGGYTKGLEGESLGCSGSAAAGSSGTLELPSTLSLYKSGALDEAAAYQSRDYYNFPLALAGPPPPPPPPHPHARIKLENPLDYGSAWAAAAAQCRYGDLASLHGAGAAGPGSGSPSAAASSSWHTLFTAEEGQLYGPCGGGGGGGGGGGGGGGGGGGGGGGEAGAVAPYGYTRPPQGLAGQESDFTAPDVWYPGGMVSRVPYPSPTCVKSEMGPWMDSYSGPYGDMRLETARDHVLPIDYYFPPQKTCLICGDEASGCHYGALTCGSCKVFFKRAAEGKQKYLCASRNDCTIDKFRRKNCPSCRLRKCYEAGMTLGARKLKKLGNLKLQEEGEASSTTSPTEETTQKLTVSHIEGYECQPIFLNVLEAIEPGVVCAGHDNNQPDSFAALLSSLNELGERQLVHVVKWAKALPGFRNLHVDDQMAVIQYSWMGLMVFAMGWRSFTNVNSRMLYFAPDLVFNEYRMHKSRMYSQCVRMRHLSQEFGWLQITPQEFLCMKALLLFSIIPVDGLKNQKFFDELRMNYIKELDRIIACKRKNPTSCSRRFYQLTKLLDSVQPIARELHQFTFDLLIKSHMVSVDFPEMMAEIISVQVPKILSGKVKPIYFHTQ
# Experiment: Androgen Receptor ELISA assay (PathScan AR ELISA) in VCaP cells: AR degradation, Dmax and DC50
# Type: cell-based
# In short: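 VCaP cells, 30,000/well, grown ≥3 days in phenol red-free RPMI with 5% charcoal-stripped FBS; compound added in 0.1% DMSO with 0.1 nM R1881, 7 half-log doses, 24 h. Lysate AR quantified by PathScan sandwich ELISA, HRP/TMB read at 450 nm, giving DC50 and Dmax.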
# [1] = VCaP cells; Table 36; read-out: VCaP DC50
# [2] = VCaP, VCaP cells; Table 36; read-out: VCaP Dmax (%)
DC50 [1],Dmax [2],SMILES,"Dmax (VCaP, read-out: VCaP Dmax (%))",DC50 (read-out: VCaP DC50; VCaP cells; Table 36)
< 0.05 µM,> 71%,"Cc1ncsc1-c1ccc([C@H](C)NC(=O)C2C[C@@H](O)CN2C(=O)[C@@H](NC(=O)COCCN2C[C@@H](C)N(c3ccc(C(=O)N[C@H]4C(C)(C)[C@H](Oc5ccc(C#N)c(Cl)c5)C4(C)C)cn3)[C@@H](C)C2)C(C)(C)C)cc1 (stereo partly drawn) [Example 813, N-((1r,3R)-3-(3-chloro-4-cyanophenoxy)-2,2,4,4-tetramethylcyclobutyl)-6-((2S,6R)-4-(2-(2-(((2S)-1-((4R)-4-hydroxy-2-(((S)-1-(4-(4-methylthiazol-5-yl)phenyl)ethyl)carbamoyl)pyrrolidin-1-yl)-3,3-dimethyl-1-oxobutan-2-yl)amino)-2-oxoethoxy)ethyl)-2,6-dimethylpiperazin-1-yl)nicotinamide]",,
< 0.05 µM,26 to 50%,"Cc1ncsc1-c1ccc([C@H](C)NC(=O)C2C[C@@H](O)CN2C(=O)C(NC(=O)CN2CC3(CC(N4CCN(c5ccc(C(=O)NC6C(C)(C)C(Oc7ccc(C#N)c(Cl)c7)C6(C)C)cn5)CC4)C3)C2)C(C)(C)C)cc1 (stereo partly drawn) [Example 814, N-((1r,3r)-3-(3-chloro-4-cyanophenoxy)-2,2,4,4-tetramethylcyclobutyl)-6-(4-(2-(2-(((S)-1-((2S, 4R)-4-hydroxy-2-(((S)-1-(4-(4-methylthiazol-5-yl)phenyl)ethyl)carbamoyl)pyrrolidin-1-yl)-3,3-dimethyl-1-oxobutan-2-yl)amino)-2-oxoethyl)-2-azaspiro [3.3]heptan-6-yl)piperazin-1-yl) nicotinamide]",,
< 0.05 µM,51 to 70%,"Cc1ncsc1-c1ccc([C@H](C)NC(=O)C2C[C@@H](O)CN2C(=O)C(NC(=O)COC(C)(C)CN2CCN(c3ccc(C(=O)NC4C(C)(C)C(Oc5ccc(C#N)c(Cl)c5)C4(C)C)cn3)CC2)C(C)(C)C)cc1 (stereo partly drawn) [Example 815, N-((1r,3r)-3-(3-chloro-4-cyanophenoxy)-2,2,4,4-tetramethylcyclobutyl)-6-(4-(2-(2-(((S)-1-((2S, 4R)-4-hydroxy-2-(((S)-1-(4-(4-methylthiazol-5-yl)phenyl)ethyl)carbamoyl)pyrrolidin-1-yl)-3,3-dimethyl-1-oxobutan-2-yl)amino)-2-oxoethoxy)-2-methylpropyl)piperazin-1-yl) nicotinamide]",,
> 0.501 µM,< 25%,"Cc1ncsc1-c1ccc([C@H](C)NC(=O)[C@@H]2C[C@@H](O)CN2C(=O)[C@H](c2cc(CCCN3CCN(c4ccc(C(=O)N[C@H]5C(C)(C)[C@H](Oc6ccc(C#N)c(Cl)c6)C5(C)C)cn4)CC3)no2)C(C)C)cc1 [Example 818, N-((1r,3r)-3-(3-chloro-4-cyanophenoxy)-2,2,4,4-tetramethylcyclobutyl)-6-(4-(3-(5-((S)-1-((2S, 4R)-4-hydroxy-2-(((S)-1-(4-(4-methylthiazol-5-yl)phenyl)ethyl)carbamoyl)pyrrolidin-1-yl)-3-methyl-1-oxobutan-2-yl)isoxazol-3-yl)propyl)piperazin-1-yl) nicotinamide]",,
< 0.05 µM,> 71%,"Cc1ncsc1-c1ccc([C@H](C)NC(=O)[C@@H]2C[C@@H](O)CN2C(=O)[C@@H](c2cc(CCCN3CCN(c4ccc(C(=O)N[C@H]5C(C)(C)[C@H](Oc6ccc(C#N)c(Cl)c6)C5(C)C)cn4)CC3)no2)C(C)C)cc1 [Example 819, N-((1r,3r)-3-(3-chloro-4-cyanophenoxy)-2,2,4,4-tetramethylcyclobutyl)-6-(4-(3-(5-((R)-1-((2S, 4R)-4-hydroxy-2-(((S)-1-(4-(4-methylthiazol-5-yl)phenyl)ethyl)carbamoyl)pyrrolidin-1-yl)-3-methyl-1-oxobutan-2-yl)isoxazol-3-yl)propyl)piperazin-1-yl) nicotinamide]",,
< 0.05 µM,> 71%,"Cc1ncsc1-c1ccc([C@H](CO)NC(=O)[C@@H]2C[C@@H](O)CN2C(=O)[C@@H](NC(=O)CN2CCN(CCCc3ccc(C(=O)N[C@H]4C(C)(C)[C@H](Oc5ccc(C#N)c(Cl)c5)C4(C)C)cc3)CC2)C(C)(C)C)cc1 [Example 820, (2S,4R)-1-((S)-2-(2-(4-(3-(4-(((1r,3r)-3-(3-chloro-4-cyanophenoxy)-2,2,4,4-tetramethylcyclobutyl)carbamoyl)phenyl)propyl)piperazin-1-yl)acetamido)-3,3-dimethylbutanoyl)-4-hydroxy-N-((R)-2-hydroxy-1-(4-(4-methylthiazol-5-yl)phenyl)ethyl) pyrrolidine-2-carboxamide]",,
,,"Cc1ncsc1-c1ccc([C@H](CO)NC(=O)[C@@H]2C[C@@H](O)CN2C(=O)[C@@H](NC(=O)COCCN2C3CCC2CN(c2ccc(C(=O)N[C@H]4C(C)(C)[C@H](Oc5ccc(C#N)c(Cl)c5)C4(C)C)cn2)C3)C(C)(C)C)cc1 [Example 821, N-((1r,3r)-3-(3-chloro-4-cyanophenoxy)-2,2,4,4-tetramethylcyclobutyl)-6-(8-(2-(2-(((S)-1-((2S, 4R)-4-hydroxy-2-(((R)-2-hydroxy-1-(4-(4-methylthiazol-5-yl)phenyl)ethyl)carbamoyl)pyrrolidin-1-yl)-3,3-dimethyl-1-oxobutan-2-yl)amino)-2-oxoethoxy)ethyl)-3,8-diazabicyclo [3.2.1]octan-3-yl) nicotinamide]",> 71%,< 0.05 µM
< 0.05 µM,> 71%,"Cc1ncsc1-c1ccc([C@H](CO)NC(=O)C2C[C@@H](O)CN2C(=O)[C@@H](NC(=O)COCCN2CCCN(c3ccc(C(=O)NC4C(C)(C)C(Oc5ccc(C#N)c(Cl)c5)C4(C)C)cn3)CC2)C(C)(C)C)cc1 (stereo partly drawn) [Example 822, N-((1r,3r)-3-(3-chloro-4-cyanophenoxy)-2,2,4,4-tetramethylcyclobutyl)-6-(4-(2-(2-(((S)-1-((2S, 4R)-4-hydroxy-2-(((R)-2-hydroxy-1-(4-(4-methylthiazol-5-yl)phenyl)ethyl)carbamoyl)pyrrolidin-1-yl)-3,3-dimethyl-1-oxobutan-2-yl)amino)-2-oxoethoxy)ethyl)-1,4-diazepan-1-yl) nicotinamide]",,

SMILES,DC50 [1],Dmax [2],"Dmax (VCaP, read-out: VCaP Dmax (%))",DC50 (read-out: VCaP DC50; VCaP cells; Table 36)
"Cc1ncsc1-c1ccc([C@H](C)NC(=O)[C@@H]2C[C@@H](O)CN2C(=O)[C@@H](NC(=O)CN2C[C@H](C)N(CCCc3ccc(C(=O)N[C@H]4C(C)(C)[C@H](Oc5ccc(C#N)c(Cl)c5)C4(C)C)cc3)C[C@H]2C)C(C)(C)C)cc1 [Example 816, (2S,4R)-1-((S)-2-(2-((2R,5S)-4-(3-(4-(((1r, 3S)-3-(3-chloro-4-cyanophenoxy)-2,2,4,4-tetramethylcyclobutyl)carbamoyl)phenyl)propyl)-2,5-dimethylpiperazin-1-yl)acetamido)-3,3-dimethylbutanoyl)-4-hydroxy-N-((S)-1-(4-(4-methylthiazol-5-yl)phenyl)ethyl) pyrrolidine-2-carboxamide]",< 0.05 µM,,> 71%,
"Cc1ncsc1-c1ccc([C@H](C)NC(=O)[C@@H]2C[C@@H](O)CN2C(=O)[C@@H](NC(=O)CN2C[C@@H](C)N(CCCc3ccc(C(=O)N[C@H]4C(C)(C)[C@H](Oc5ccc(C#N)c(Cl)c5)C4(C)C)cc3)C[C@@H]2C)C(C)(C)C)cc1 [Example 817, (2S,4R)-1-((S)-2-(2-((2S,5R)-4-(3-(4-(((1r, 3R)-3-(3-chloro-4-cyanophenoxy)-2,2,4,4-tetramethylcyclobutyl)carbamoyl)phenyl)propyl)-2,5-dimethylpiperazin-1-yl)acetamido)-3,3-dimethylbutanoyl)-4-hydroxy-N-((S)-1-(4-(4-methylthiazol-5-yl)phenyl)ethyl) pyrrolidine-2-carboxamide]",< 0.05 µM,,> 71%,
"Cc1ncsc1-c1ccc([C@H](C)NC(=O)[C@@H]2C[C@@H](O)CN2C(=O)[C@@H](NC(=O)CN2CCN(CCCc3ccc(C(=O)N[C@H]4C(C)(C)[C@H](Oc5ccc(C#N)c(Cl)c5)C4(C)C)cc3)[C@@H](CO)C2)C(C)(C)C)cc1 [Example 823, (2S,4R)-1-((S)-2-(2-((R)-4-(3-(4-(((1r,3R)-3-(3-chloro-4-cyanophenoxy)-2,2,4,4-tetramethylcyclobutyl)carbamoyl)phenyl)propyl)-3-(hydroxymethyl)piperazin-1-yl)acetamido)-3,3-dimethylbutanoyl)-4-hydroxy-N-((S)-1-(4-(4-methylthiazol-5-yl)phenyl)ethyl) pyrrolidine-2-carboxamide]",< 0.05 µM,,> 71%,
